Results taken from the NIST ThermoML archive (doi:10.1021/je901020a).

Columns and labels:
[1] = xn = mol fraction of the nth substance listed; settings: 101 kPa, Liquid; for speed of sound: Pulse-echo method
[2] = refractive index (Na D-line) (dimensionless); xn = mol fraction of the nth substance listed; settings: 101 kPa, Liquid, Standard Abbe refractometry

C1CCCCCCC1 [cyclooctane] + Cc1cc(C)cc(C)c1
Settings | mass density, [1] [kg/m3] | refractive index, [2] | speed of sound, [1] [m/s]
298.15 K, x1 = 0.0496 | 858.9 | 1.49453 | 1338
298.15 K, x1 = 0.1026 | 856.8 | 1.49198 | 1339
298.15 K, x1 = 0.2035 | 852.7 | 1.48725 | 1341
298.15 K, x1 = 0.307 | 848.8 | 1.48253 | 1345
298.15 K, x1 = 0.4062 | 845.2 | 1.47807 | 1349
298.15 K, x1 = 0.5042 | 841.9 | 1.47384 | 1354
298.15 K, x1 = 0.598 | 839 | 1.46995 | 1359
298.15 K, x1 = 0.696 | 836.2 | 1.46606 | 1366
298.15 K, x1 = 0.8308 | 833.3 | 1.46115 | 1376
298.15 K, x1 = 0.8926 | 832.3 | 1.45905 | 1381
298.15 K, x1 = 0.9484 | 831.7 | 1.45738 | 1386
298.15 K, x1 = 1 | 831.5 | 1.45598 | 1391
313.15 K, x1 = 0.0517 | 846.6 | 1.48694 | 1277
313.15 K, x1 = 0.0872 | 845.2 | 1.48532 | 1278
313.15 K, x1 = 0.1842 | 841.3 | 1.48082 | 1280
313.15 K, x1 = 0.2935 | 837.2 | 1.4759 | 1283
313.15 K, x1 = 0.3891 | 833.8 | 1.47166 | 1287
313.15 K, x1 = 0.4882 | 830.4 | 1.46743 | 1291
313.15 K, x1 = 0.5857 | 827.5 | 1.4634 | 1296
313.15 K, x1 = 0.6847 | 824.6 | 1.45952 | 1302
313.15 K, x1 = 0.791 | 822.1 | 1.45559 | 1309
313.15 K, x1 = 0.8911 | 820.3 | 1.45214 | 1317
313.15 K, x1 = 0.939 | 819.7 | 1.45053 | 1321
313.15 K, x1 = 1 | 819.2 | 1.44877 | 1325

C1CCCCCCC1 [cyclooctane] + Cc1ccc(C)cc1
Settings | mass density, [1] [kg/m3] | refractive index, [2] | speed of sound, [1] [m/s]
298.15 K, x1 = 0.0534 | 854.3 | 1.49055 | 1312
298.15 K, x1 = 0.1004 | 852.6 | 1.4883 | 1314
298.15 K, x1 = 0.2025 | 848.8 | 1.48358 | 1319
298.15 K, x1 = 0.303 | 845.4 | 1.4792 | 1325
298.15 K, x1 = 0.402 | 842.4 | 1.47506 | 1332
298.15 K, x1 = 0.4986 | 839.6 | 1.47129 | 1339
298.15 K, x1 = 0.599 | 837.1 | 1.46764 | 1348
298.15 K, x1 = 0.6981 | 835 | 1.46424 | 1357
298.15 K, x1 = 0.7968 | 833.3 | 1.46119 | 1367
298.15 K, x1 = 0.8926 | 832 | 1.4585 | 1377
298.15 K, x1 = 0.9504 | 831.5 | 1.45707 | 1384
298.15 K, x1 = 1 | 831.5 | 1.45598 | 1391
313.15 K, x1 = 0.0485 | 841.6 | 1.48247 | 1250
313.15 K, x1 = 0.0874 | 840.2 | 1.48077 | 1252
313.15 K, x1 = 0.1848 | 836.7 | 1.47651 | 1256
313.15 K, x1 = 0.2948 | 833.2 | 1.472 | 1262
313.15 K, x1 = 0.3853 | 830.4 | 1.46825 | 1268
313.15 K, x1 = 0.4829 | 827.7 | 1.46454 | 1274
313.15 K, x1 = 0.5809 | 825.3 | 1.46094 | 1282
313.15 K, x1 = 0.6837 | 823.1 | 1.45755 | 1291
313.15 K, x1 = 0.7877 | 821.3 | 1.45432 | 1301
313.15 K, x1 = 0.8888 | 820 | 1.45148 | 1312
313.15 K, x1 = 0.9413 | 819.5 | 1.4501 | 1318
313.15 K, x1 = 1 | 819.2 | 1.44877 | 1325

C1CCCCCCC1 [cyclooctane] + Cc1cccc(C)c1
Settings | mass density, [1] [kg/m3] | refractive index, [2] | speed of sound, [1] [m/s]
298.15 K, x1 = 0.0545 | 857.4 | 1.49186 | 1322
298.15 K, x1 = 0.0993 | 855.5 | 1.48961 | 1324
298.15 K, x1 = 0.2059 | 851.1 | 1.4845 | 1328
298.15 K, x1 = 0.3074 | 847.4 | 1.4799 | 1333
298.15 K, x1 = 0.3933 | 844.4 | 1.47623 | 1338
298.15 K, x1 = 0.5031 | 841 | 1.47176 | 1346
298.15 K, x1 = 0.6002 | 838.2 | 1.46806 | 1353
298.15 K, x1 = 0.6993 | 835.9 | 1.46461 | 1361
298.15 K, x1 = 0.8198 | 833.5 | 1.46072 | 1372
298.15 K, x1 = 0.8909 | 832.4 | 1.45869 | 1379
298.15 K, x1 = 0.9503 | 831.8 | 1.45714 | 1385
298.15 K, x1 = 1 | 831.5 | 1.45598 | 1391
313.15 K, x1 = 0.0506 | 844.7 | 1.48423 | 1260
313.15 K, x1 = 0.0888 | 843.1 | 1.48242 | 1262
313.15 K, x1 = 0.1861 | 839.3 | 1.47779 | 1265
313.15 K, x1 = 0.2924 | 835.4 | 1.47308 | 1270
313.15 K, x1 = 0.3795 | 832.4 | 1.46944 | 1275
313.15 K, x1 = 0.487 | 829.1 | 1.46522 | 1282
313.15 K, x1 = 0.5832 | 826.4 | 1.46159 | 1289
313.15 K, x1 = 0.6823 | 824 | 1.45808 | 1296
313.15 K, x1 = 0.7874 | 821.9 | 1.45469 | 1305
313.15 K, x1 = 0.8879 | 820.3 | 1.45169 | 1315
313.15 K, x1 = 0.9389 | 819.7 | 1.45047 | 1320
313.15 K, x1 = 1 | 819.2 | 1.44877 | 1326

C1CCCCCCC1 [cyclooctane] + Cc1ccccc1C
Settings | mass density, [1] [kg/m3] | refractive index, [2] | speed of sound, [1] [m/s]
298.15 K, x1 = 0.0513 | 871.8 | 1.49887 | 1347
298.15 K, x1 = 0.1015 | 868.4 | 1.49595 | 1348
298.15 K, x1 = 0.2 | 862.5 | 1.49039 | 1349
298.15 K, x1 = 0.3067 | 856.9 | 1.48468 | 1351
298.15 K, x1 = 0.4026 | 852.2 | 1.47987 | 1354
298.15 K, x1 = 0.5037 | 847.6 | 1.47508 | 1358
298.15 K, x1 = 0.6262 | 842.6 | 1.46963 | 1364
298.15 K, x1 = 0.7007 | 839.9 | 1.46653 | 1368
298.15 K, x1 = 0.8028 | 836.5 | 1.4626 | 1375
298.15 K, x1 = 0.8953 | 833.9 | 1.45933 | 1381
298.15 K, x1 = 0.9498 | 832.5 | 1.45752 | 1386
298.15 K, x1 = 1 | 831.5 | 1.45598 | 1391
313.15 K, x1 = 0.0508 | 859.7 | 1.49181 | 1289
313.15 K, x1 = 0.0905 | 857.3 | 1.48933 | 1289
313.15 K, x1 = 0.1697 | 852.7 | 1.48503 | 1289
313.15 K, x1 = 0.2967 | 845.9 | 1.47816 | 1291
313.15 K, x1 = 0.3824 | 841.6 | 1.47392 | 1293
313.15 K, x1 = 0.4839 | 836.9 | 1.46911 | 1296
313.15 K, x1 = 0.5878 | 832.4 | 1.46435 | 1300
313.15 K, x1 = 0.6869 | 828.6 | 1.46018 | 1305
313.15 K, x1 = 0.7892 | 825.1 | 1.45617 | 1310
313.15 K, x1 = 0.8891 | 822 | 1.45244 | 1317
313.15 K, x1 = 0.9368 | 820.7 | 1.45072 | 1321
313.15 K, x1 = 1 | 819.2 | 1.44877 | 1326
